In patent US20230114728A1 (Venatorx Pharmaceuticals, Inc., priority 2019, published 2023):
pEC50: −log10 of the molar value. Values after ≈ are worked out from the molar mass of the structure shown. Read-outs that look alike come from different tables or passages of the source.

How the values were obtained:
[1] = test system: K. pneumoniae 848844 producing SHV-11 and KPC-2; assay: Broth microdilution MIC in CAMHB; assay type: cell-based; conditions: Klebsiella pneumoniae, read-out: Minimum Inhibitory Concentration, K. pneumoniae 848844
Experimental: (§1) Example III: In Vitro Antibacterial Assays
(§2) To determine the ability of test compounds to inhibit the growth of bacterial strains, classic cell based broth microdilution minimum inhibitory concentration (MIC) assays were employed. MIC assays are performed according to CLSI methods except where otherwise noted (CLSI, 2018 and CLSI, 2019). The reference type strain E. coli ATCC 25922; the wild-type parent strain E. coli AG100; the hyper-permeable E. coli 901C and E. coli D22; and the E. coli AG100A strain lacking the acrAB efflux pump encoding genes were used to determine the ability of the PBP inhibitors to penetrate the outer membrane of gram-negative bacteria and inhibit bacterial growth. […] The P. aeruginosa ATCC 27853 and A. baumannii ATCC 19606, along with the hyper-permeable P. aeruginosa ATCC 35151 and an engineered efflux pump-compromised strain of P. aeruginosa (ΔmexAB-oprM) were used to determine the ability of PBP inhibitors to penetrate the outer membrane of P. aeruginosa and A. baumannii and assess antibacterial activity against these important gram-negative organisms.
(§3) Briefly, cryo-preserved bacterial cultures of challenge strains are streaked for isolation on appropriate agar medium, in this case cation-adjusted Mueller Hinton agar. Following incubation to allow growth of the colonies, plates are sealed with parafilm and stored refrigerated for up to two weeks. For preparation of assay inoculum and to ensure low variability, at least 5 colonies are picked from the agar plates with an inoculating loop and aseptically transferred to a culture tube containing 3 mL of cation-adjusted Mueller Hinton broth (CAMHB). The broth culture is grown for 3-5 hours at 37° C. with shaking at 200 rpm. Meanwhile, 2-fold serial dilutions of test compounds are conducted in a 96-well plate with a final volume of 75 μL per well at 2-fold the final desired concentration. After the dilution plates are set up the growing cultures are then diluted in a cuvette containing CAMHB and the optical density is measured at 600 nm. The inoculum is diluted such that 75 μL of this culture in CAMHB results in a starting bacterial concentration of 2-8×10^5 CFU/mL when added to the dilution plates. The plates are incubated for 16-20 hours for Enterobacteriaceae and Pseudomonas and 20-24 hours for Acinetobacter at 37° C. The MIC values are read visually as the lowest concentration well with no bacterial growth.

P. aeruginosa ATCC 27853 = assay: Broth microdilution MIC in CAMHB; assay type: cell-based; conditions: Pseudomonas aeruginosa, ATCC27853; MHB; read-out: Minimum Inhibitory Concentration, P. aeruginosa ATCC 27853
Experimental: as §1, §2, §3

E. coli 901C = assay: Broth microdilution MIC in CAMHB; assay type: cell-based; conditions: Escherichia coli, MHB, read-out: Minimum Inhibitory Concentration, E. coli 901C
Experimental: as §1, §2, §3

E. coli AG100 = assay: Broth microdilution MIC in CAMHB; assay type: cell-based; conditions: Escherichia coli, MHB, read-out: Minimum Inhibitory Concentration, E. coli AG100
Experimental: as §1, §2, §3

[2] = test system: P. aeruginosa (ΔmexAB-oprM); assay: Broth microdilution MIC in CAMHB; assay type: cell-based; conditions: Pseudomonas aeruginosa, read-out: Minimum Inhibitory Concentration, P. aeruginosa ΔmexAB-OprM
Experimental: as §1, §2, §3

E. coli ATCC 25922 = assay: Broth microdilution MIC in CAMHB; assay type: cell-based
Experimental: as §1, §2, §3

E. coli AG100A = assay: Broth microdilution MIC in CAMHB; assay type: cell-based; conditions: Escherichia coli, read-out: Minimum Inhibitory Concentration, E. coli AG100A
Experimental: as §1, §2, §3

A. baumannii ATCC 19606 = assay: Broth microdilution MIC in CAMHB; assay type: cell-based; conditions: Acinetobacter baumannii, ATCC19606; MHB; read-out: Minimum Inhibitory Concentration, A. baumannii ATCC 19606
Experimental: as §1, §2, §3

E. coli D22 = assay: Broth microdilution MIC in CAMHB; assay type: cell-based; conditions: Escherichia coli, MHB, read-out: Minimum Inhibitory Concentration, E. coli D22
Experimental: as §1, §2, §3

P. aeruginosa ATCC 35151 = assay: Broth microdilution MIC in CAMHB; assay type: cell-based; conditions: Pseudomonas aeruginosa, ATCC35151; MHB; hyper-permeable strain; read-out: Minimum Inhibitory Concentration, P. aeruginosa ATCC 35151
Experimental: as §1, §2, §3

[3] = test system: K. pneumoniae SI-117 producing VIM-1; assay: Broth microdilution MIC in CAMHB; assay type: cell-based; conditions: Klebsiella pneumoniae, read-out: Minimum Inhibitory Concentration, K. pneumoniae SI-117
Experimental: as §1, §2, §3

[4] = test system: K. pneumoniae UMM producing SHV-5 and KPC-2; assay: Broth microdilution MIC in CAMHB; assay type: cell-based; conditions: Klebsiella pneumoniae, read-out: Minimum Inhibitory Concentration, K. pneumoniae UMM
Experimental: as §1, §2, §3

P. aeruginosa PBP3 = biological target: T1, P. aeruginosa PBP3 (Pseudomonas aeruginosa, UniProt G3XD46); assay: Bocillin-FL fluorescence polarization competition binding assay, P. aeruginosa PBP3; conditions: P. aeruginosa PBP3; assay validation with beta-lactams; read-out: EC50 (concentration of beta-lactam required to reduce the amount of PBP bound-Bocillin-FL by 50%)
T1 construct: made in house
T1 sequence (G3XD46 whole entry): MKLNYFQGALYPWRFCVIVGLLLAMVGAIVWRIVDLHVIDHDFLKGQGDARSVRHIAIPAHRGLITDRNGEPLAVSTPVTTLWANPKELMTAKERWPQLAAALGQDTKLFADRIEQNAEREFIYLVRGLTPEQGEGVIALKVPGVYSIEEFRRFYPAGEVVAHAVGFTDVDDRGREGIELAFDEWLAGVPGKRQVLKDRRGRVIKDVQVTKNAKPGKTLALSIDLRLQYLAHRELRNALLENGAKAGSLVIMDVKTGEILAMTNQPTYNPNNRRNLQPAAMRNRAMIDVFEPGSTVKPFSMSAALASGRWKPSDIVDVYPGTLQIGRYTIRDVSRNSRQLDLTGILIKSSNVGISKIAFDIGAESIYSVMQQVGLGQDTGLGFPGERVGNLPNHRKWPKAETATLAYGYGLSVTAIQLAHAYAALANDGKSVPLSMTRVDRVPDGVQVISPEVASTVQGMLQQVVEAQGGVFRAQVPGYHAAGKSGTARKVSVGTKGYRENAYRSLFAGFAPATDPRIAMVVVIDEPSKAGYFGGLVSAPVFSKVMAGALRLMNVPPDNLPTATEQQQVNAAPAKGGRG
Text: Example I: Experimental Method for Penicillin-Binding Protein Binding Assays with Bocillin-FL Via Fluorescence Polarization
To determine the ability of boronic acid-based test PBP inhibitors to bind Penicillin Binding Proteins (PBPs), Bocillin-FL (fluorescently-labeled penicillin V; ThermoFisher Scientific) was used in a fluorescence polarization (FP) competition binding assay to assess inhibitor binding to PBP2, PBP3 or PBP4 from Escherichia coli (K12), PBP3 from Pseudomonas aeruginosa (PA01), PBP1a, PBP2 and PBP3 from Acinetobacter baumannii (ATCC 19606), and PBP2 from Neiserria gonorrheae (FA19). PBPs were cloned and purified as described previously (E. coli PBPs, King, D. T, et al., ACS Infectious Diseases 2015, 1, 175-184; P. aeruginosa PBP3, Han et. al., PNAS 2010, 107 (51), 22002-22007; A. baumannii PBPs, Penwell et. al., Antimicrob. Agents Chemother. 2015, 59 (3), 1680-1689; N. gonorrhoeae PBP2, Singh et. al., J Biol. Chem. 2019, 294 (38), 14020-14032). To establish assay conditions for competition binding, enzyme titration/saturation binding experiments were initially performed. Bocillin-FL was prepared at 0.2 μM in a buffer comprised of 50 mM Hepes (pH 8.0), 300 mM NaCl and 5% (v/v) glycerol for reactions with E. coli, P. aeruginosa and N. gonorrhoeae PBPs, and 25 mM Tris (pH 8.0), 200 mM NaCl and 10% (v/v) glycerol and 0.005% (v/v) Tween 20 for reactions with A. baumannii PBPs. Saturation binding was performed by mixing 40 μl of PBP solutions ranging in concentrations from 0-24 μM with 40 μl of the 0.2 μM Bocillin-FL solution, in individual wells of a black 384-well microplate. FP was measured immediately upon mixing (Excitation, 490 nm; Emission, 520 nm; g-factor, 0.96), using a Cytation3 (BioTek) microplate reader and measured continuously for up to 120 minutes. […] The competition binding assay (80 μl final volume) was validated using beta-lactams and PBPs at final concentrations of: 1.5 μM, E. coli PBP3; 0.75 μM, P. aeruginosa PBP3; 1 μM A. baumannii PBP1a; 2.5 μM A. baumannii PBP2; 0.2 μM A. baumannii PBP3; and […] N. gonorrhoeae PBP2. Bocillin-FL was at 0.1 μM (0.05 μM with A. baumannii PBP1a) and beta-lactam concentrations ranged from 0-1000 μM. […] Bocillin-FL was added and the FP immediately measured for up to 60 minutes (90 minutes for E. coli PBP2). […] The beta-lactam potency was reported as the concentration of beta-lactam required to reduce the amount of PBP bound-Bocillin-FL by 50% (EC50). […] Binding assays for boronic acid PBP inhibitors were performed in an identical fashion for the respective PBPs

[5] = wild-type parent strain E. coli AG100
[6] = Escherichia coli, ATCC25922; MHB; E. coli ATCC 25922; read-out: Minimum Inhibitory Concentration, E. coli 25922

SMILES	MIC [1] [µg/mL]	MIC (P. aeruginosa ATCC 27853) [µg/mL]	MIC (E. coli 901C; hyper-permeable E. coli 901C) [µg/mL]	MIC (E. coli AG100; [5]) [µg/mL]	MIC [2] [µg/mL]	MIC (E. coli ATCC 25922; [6]) [µg/mL]	MIC (E. coli AG100A) [µg/mL]	MIC (A. baumannii ATCC 19606) [µg/mL]	MIC (E. coli D22; hyper-permeable E. coli D22) [µg/mL]	MIC (P. aeruginosa ATCC 35151) [µg/mL]	MIC [3] [µg/mL]	MIC [4] [µg/mL]	MIC (E. coli 901C; E. coli 901C (hyper-permeable)) [µg/mL]	MIC (E. coli AG100; E. coli AG100 (wild-type parent)) [µg/mL]	MIC (E. coli ATCC 25922; Escherichia coli, ATCC25922; E. coli ATCC 25922; MHB; read-out: Minimum Inhibitory Concentration, E. coli 25922) [µg/mL]	MIC (E. coli D22; E. coli D22 (hyper-permeable)) [µg/mL]	pEC50 (P. aeruginosa PBP3)
NCCN1CCN(C(=O)N[C@H](C(=O)N[C@H]2Cc3cccc(C(=O)O)c3OB2O)c2c(Cl)cccc2Cl)C(=O)C1=O (single isomer, unassigned) [Example 225]	> 128	> 128	> 128	> 128	> 128	> 128	> 128	> 128	> 128	> 128	> 128	32 to 64 (≈ 54 to 108 µM)					
NC1(CN2CCN(C(=O)N[C@@H](C(=O)N[C@H]3Cc4cccc(C(=O)O)c4OB3O)c3cc(F)c(O)c(F)c3F)C(=O)C2=O)CC1 (single isomer, unassigned) [Example 244]	32 to 64 (≈ 51.7 to 103 µM)	32 to 64 (≈ 51.7 to 103 µM)	> 128	> 128	2 to 4 (≈ 3.23 to 6.46 µM)	8 to 16 (≈ 12.9 to 25.8 µM)	32 to 64 (≈ 51.7 to 103 µM)	> 128	32 to 64 (≈ 51.7 to 103 µM)	< 0.25	2 to 4 (≈ 3.23 to 6.46 µM)	< 0.25					
NC1(CN2CCN(C(=O)NC(C(=O)N[C@H]3Cc4cccc(C(=O)O)c4OB3O)c3cc(F)c(O)c(F)c3F)C(=O)C2=O)CC1 (single isomer, unassigned) [Example 245]	> 128	> 128	> 128	> 128	8 to 16 (≈ 12.9 to 25.8 µM)	> 128	> 128	> 128	> 128	0.5 to 1 (≈ 0.807 to 1.61 µM)	8 to 16 (≈ 12.9 to 25.8 µM)	2 to 4 (≈ 3.23 to 6.46 µM)					
NCCCN1CCN(C(=O)N[C@@H](C(=O)N[C@H]2Cc3cccc(C(=O)O)c3OB2O)c2cc(F)c(O)c(F)c2F)C(=O)C1=O (single isomer, unassigned) [Example 246]	> 128	> 128	> 128	> 128	8 to 16 (≈ 13.2 to 26.3 µM)	32 to 64 (≈ 52.7 to 105 µM)	> 128	> 128	32 to 64 (≈ 52.7 to 105 µM)	0.5 to 1 (≈ 0.823 to 1.65 µM)	8 to 16 (≈ 13.2 to 26.3 µM)	2 to 4 (≈ 3.29 to 6.59 µM)					
NCCCN1CCN(C(=O)N[C@H](C(=O)N[C@H]2Cc3cccc(C(=O)O)c3OB2O)c2cc(F)c(O)c(F)c2F)C(=O)C1=O (single isomer, unassigned) [Example 247]		8 to 16 (≈ 13.2 to 26.3 µM)			2 to 4 (≈ 3.29 to 6.59 µM)			> 128		< 0.25							
CCN1CCN(C(=O)NC(C(=O)N[C@H]2Cc3cccc(C(=O)O)c3OB2O)c2ccc(C(=O)O)c([N+](=O)[O-])c2)C(=O)C1=O (stereo partly drawn) [Example 220, (3R)-3-(2-(4-carboxy-3-nitrophenyl)-2-(4-ethyl-2,3-dioxopiperazine-1-carboxamido)acetamido)-2-hydroxy-3,4-dihydro-2H-benzo[e][1,2]oxaborinine-8-carboxylic acid]	32 to 64 (≈ 53.6 to 107 µM)	> 128			8 to 16 (≈ 13.4 to 26.8 µM)		32 to 64 (≈ 53.6 to 107 µM)	> 128		0.5 to 1 (≈ 0.837 to 1.67 µM)	2 to 4 (≈ 3.35 to 6.7 µM)	< 0.25	> 128	> 128	> 128	32 to 64 (≈ 53.6 to 107 µM)	
C[C@H]1[C@H](NC(=O)/C(=N\OC(C)(C)C(=O)O)c2csc(N)n2)C(=O)N1S(=O)(=O)O [aztreonam, reference compound]																	> 6.30
